According to PubChem BioAssay AID2060512 (Molecular Pharmacology Branch, DTP, NCI, 2025):

System: 186277-243-T-J2-PDC complex spheroid viability
Assay: Anticancer human tumor 186277-243-T-J2-PDC patient-derived colon adenocarcinoma cell line growth inhibition [GQUAD]
Settings: for IC50: curve of first compound; for viability, T/C: stronger effect = lower value; active = viability on the fitted dose curve at most 10% of control; inactive = the rest
In short: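 Tumor cells were grown as complex spheroids with HUVEC endothelial cells and mesenchymal stem cells as stroma. G-quadruplex stabilizers were combined with targeted agents over half-log dilutions from near the clinical Cmax, or from 10 microM.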
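Note: spheroids exposed to drugs for 7 days.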
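Throughout, for viability, T/C: 100% = DMSO vehicle control viability.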

COc1cccc2c1C(=O)c1c(O)c3c(c(O)c1C2=O)CC(O)(C(=O)CO)CC3OC1CC(N)C(O)C(C)O1 (configuration not stated) + Cc1cnc(CNC(=O)c2c(=O)c3ccc(N4CCCN(C)CC4)nc3n3c2sc2ccccc23)cn1
active: viability, T/C (second compound 0.0316 µM, first compound 3.16 µM) 1.89% | viability, T/C (second compound 0.0316 µM, first compound 10 µM) 0.15% | viability, T/C (second compound 0.1 µM, first compound 3.16 µM) 1.48% | viability, T/C (second compound 0.1 µM, first compound 10 µM) 0.63% | viability, T/C (second compound 0.316 µM, first compound 3.16 µM) 0.99% | viability, T/C (second compound 0.316 µM, first compound 10 µM) 0.15% | viability, T/C (second compound 1 µM, first compound 3.16 µM) 0.12% | viability, T/C (second compound 1 µM, first compound 10 µM) 1.33% | viability, T/C (second compound 3.16 µM, first compound 3.16 µM) 2.48% | viability, T/C (second compound 3.16 µM, first compound 10 µM) 0.22% | viability, T/C (second compound 10 µM, first compound 3.16 µM) 0.24% | viability, T/C (second compound 10 µM, first compound 10 µM) 0.26%
634 nM: IC50 (second compound 0.1 µM)
350 nM: IC50 (second compound 0.316 µM)
< 31.6 nM: IC50 (second compound 1 µM) | IC50 (second compound 3.16 µM) | IC50 (second compound 10 µM)
inactive: viability, T/C (second compound 0.0316 µM, first compound 0.0316 µM) 113% | viability, T/C (second compound 0.0316 µM, first compound 0.1 µM) 84.8% | viability, T/C (second compound 0.0316 µM, first compound 0.316 µM) 65.2% | viability, T/C (second compound 0.0316 µM, first compound 1 µM) 24.3% | viability, T/C (second compound 0.1 µM, first compound 0.0316 µM) 86.5% | viability, T/C (second compound 0.1 µM, first compound 0.1 µM) 78.3% | viability, T/C (second compound 0.1 µM, first compound 0.316 µM) 77% | viability, T/C (second compound 0.1 µM, first compound 1 µM) 32.6% | viability, T/C (second compound 0.316 µM, first compound 0.0316 µM) 59.4% | viability, T/C (second compound 0.316 µM, first compound 0.1 µM) 56.3% | viability, T/C (second compound 0.316 µM, first compound 0.316 µM) 52.3% | viability, T/C (second compound 0.316 µM, first compound 1 µM) 23.8% | viability, T/C (second compound 1 µM, first compound 0.0316 µM) 45.9% | viability, T/C (second compound 1 µM, first compound 0.1 µM) 37.5% | viability, T/C (second compound 1 µM, first compound 0.316 µM) 46.5% | viability, T/C (second compound 1 µM, first compound 1 µM) 19.9% | viability, T/C (second compound 3.16 µM, first compound 0.0316 µM) 43.5% | viability, T/C (second compound 3.16 µM, first compound 0.1 µM) 54.4% | viability, T/C (second compound 3.16 µM, first compound 0.316 µM) 31.4% | viability, T/C (second compound 3.16 µM, first compound 1 µM) 13.3% | viability, T/C (second compound 10 µM, first compound 0.0316 µM) 39.9% | viability, T/C (second compound 10 µM, first compound 0.1 µM) 41.3% | viability, T/C (second compound 10 µM, first compound 0.316 µM) 41.8% | viability, T/C (second compound 10 µM, first compound 1 µM) 15.9%
433 nM: IC50 (second compound 0.0316 µM)
